Test results from patent US12606520B2, “Calpain-2 inhibitor compounds and methods of treatment” (WESTERN UNIVERSITY OF HEALTH SCIENCES, priority 2020, dated 2026).

Key:
[1] = Stability in mouse plasma at 37° C. (residual inhibition of purified human calpain-2); assay type: in vitro ADME; details: mouse, mouse plasma, B-cyclodextrin formulation, 0.2 mM, read-out: Estimated half-life in mouse plasma (converted)
Method: NA112 (C12, 0.2 mM) was incubated with mouse plasma at 37° C. for the indicated periods of time. Aliquots were taken and the degree of inhibition of purified human calpain-2 was measured. Results were normalized to the maximum degree of inhibition (100%) measured at to.
NA112A in β-cyclodextrin formulation (10 μM) was incubated in mouse plasma at 37° C. for the indicated periods of time. Aliquots were taken and the degree of inhibition of purified human calpain-2 was measured. Results were normalized to the maximum degree of inhibition (50%) measured at t0.

[2] = PK in mice after iv injection of liposomal NA112: brain; assay type: in vivo; details: mice iv 10 mg/kg liposomes, 24 hr; BLQ: below the limit of quantification, assay sensitivity 2 ng/ml
cell death in cortex = test: Cell death in cortex 24 h after TBI in rats; assay type: in vivo; details: 1 mg/kg i.p. at 1 h and 8 h after TBI
Method: (§1) We also performed the same model of TBI in male and female mice and in male and female rats. In all cases, NA184 was injected i.p. at 1 mg/kg. For the rat experiments, NA184 was injected twice at 1 h and 8 h after TBI. Animals were sacrificed 24 h after TBI and calpain activity was assayed in brain and cell death was analyzed in cortex. […] In addition, there was a highly significant correlation between calpain-2 activity and cell death in rats (FIG. 23). R^2 was 0.61 and p<0.005.

calpain-1 [3] = biological target: T1, calpain-1 (Mus musculus, UniProt O35350); test: Calpain-1 activity in brain after TBI in mice; assay type: in vivo; parameters: from tissue; host or cells: mouse brain after TBI; details: 1 mg/kg i.p., 24 h after TBI
T1 sequence (O35350 1-713): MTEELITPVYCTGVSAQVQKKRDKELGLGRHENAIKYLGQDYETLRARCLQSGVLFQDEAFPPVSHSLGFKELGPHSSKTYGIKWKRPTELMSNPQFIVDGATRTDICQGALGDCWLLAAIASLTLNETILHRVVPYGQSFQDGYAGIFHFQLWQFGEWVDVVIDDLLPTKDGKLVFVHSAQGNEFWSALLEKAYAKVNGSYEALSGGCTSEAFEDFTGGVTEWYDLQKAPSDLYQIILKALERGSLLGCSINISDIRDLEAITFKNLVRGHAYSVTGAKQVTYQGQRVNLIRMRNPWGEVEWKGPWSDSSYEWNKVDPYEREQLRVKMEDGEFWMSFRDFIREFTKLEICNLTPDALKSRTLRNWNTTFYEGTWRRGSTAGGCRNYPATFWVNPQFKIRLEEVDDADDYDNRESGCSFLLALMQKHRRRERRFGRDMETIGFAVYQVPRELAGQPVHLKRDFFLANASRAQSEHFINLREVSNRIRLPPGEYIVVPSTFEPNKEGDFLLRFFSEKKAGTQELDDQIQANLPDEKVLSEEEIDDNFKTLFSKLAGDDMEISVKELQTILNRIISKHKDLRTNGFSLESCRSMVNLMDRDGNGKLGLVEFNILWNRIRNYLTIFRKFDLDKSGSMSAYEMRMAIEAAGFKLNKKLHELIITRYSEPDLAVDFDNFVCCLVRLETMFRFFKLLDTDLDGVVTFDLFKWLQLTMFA
T1 sequence (O88456 1-268 partner): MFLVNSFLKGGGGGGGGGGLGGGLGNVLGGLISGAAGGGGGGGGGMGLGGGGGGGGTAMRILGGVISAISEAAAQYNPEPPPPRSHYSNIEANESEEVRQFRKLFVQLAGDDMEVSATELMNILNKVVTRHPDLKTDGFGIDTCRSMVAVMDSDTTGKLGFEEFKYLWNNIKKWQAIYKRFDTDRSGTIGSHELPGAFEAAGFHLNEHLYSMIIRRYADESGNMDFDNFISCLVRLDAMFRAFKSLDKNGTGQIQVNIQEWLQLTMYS
Method: as §1

calpain-1 [4] = biological target: T2, calpain-1 (Rattus norvegicus, UniProt P97571); test: Calpain-1 activity in brain after TBI in rats; assay type: in vivo; details: 1 mg/kg i.p. at 1 h and 8 h after TBI, 24 h after TBI
T2 construct: from tissue; host or cells: rat brain after TBI
T2 sequence (P97571 1-713): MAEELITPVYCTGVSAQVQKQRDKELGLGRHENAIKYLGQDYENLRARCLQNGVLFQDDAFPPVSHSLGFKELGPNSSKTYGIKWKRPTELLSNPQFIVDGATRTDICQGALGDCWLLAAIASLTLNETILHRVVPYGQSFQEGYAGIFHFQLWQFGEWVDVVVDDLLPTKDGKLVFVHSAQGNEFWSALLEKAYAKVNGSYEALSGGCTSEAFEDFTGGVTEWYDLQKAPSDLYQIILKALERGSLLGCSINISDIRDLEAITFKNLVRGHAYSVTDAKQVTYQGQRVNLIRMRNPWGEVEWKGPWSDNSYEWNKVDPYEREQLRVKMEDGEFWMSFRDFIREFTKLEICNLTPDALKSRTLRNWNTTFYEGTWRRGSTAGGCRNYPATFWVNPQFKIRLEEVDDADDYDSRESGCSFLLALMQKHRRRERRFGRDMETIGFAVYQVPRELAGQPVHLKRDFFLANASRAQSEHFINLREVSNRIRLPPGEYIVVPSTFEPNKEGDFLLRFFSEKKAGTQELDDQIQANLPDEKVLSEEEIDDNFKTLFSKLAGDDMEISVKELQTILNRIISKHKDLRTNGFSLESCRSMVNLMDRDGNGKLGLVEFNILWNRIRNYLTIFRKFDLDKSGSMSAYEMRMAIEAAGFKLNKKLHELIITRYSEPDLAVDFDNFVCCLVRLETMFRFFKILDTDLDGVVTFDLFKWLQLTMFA
T2 sequence (Q64537 1-270 partner): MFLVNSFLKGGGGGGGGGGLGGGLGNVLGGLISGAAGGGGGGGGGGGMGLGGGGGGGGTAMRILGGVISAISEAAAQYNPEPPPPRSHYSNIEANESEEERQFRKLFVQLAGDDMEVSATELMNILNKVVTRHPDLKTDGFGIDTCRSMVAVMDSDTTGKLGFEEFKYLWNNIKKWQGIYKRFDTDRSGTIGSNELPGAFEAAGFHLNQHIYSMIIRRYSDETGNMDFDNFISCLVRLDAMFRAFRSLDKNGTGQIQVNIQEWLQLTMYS
Method: as §1

## CCC(NC(=O)[C@H](CC(C)C)NC(=O)NCc1ccccc1)C(=O)C(=O)NCc1cc(OC)cc(OC)c1 (mixture of isomers) [NA112, (2S)-2-(3-benzylureido)-N-(1-((3,5-dimethoxybenzyl)amino)-1,2-dioxopentan-3-yl)-4-methylpentanamide]
[1]
  half-life at 0.2 mM: 17 h
[2]
  Brain concentration A1: BLQ
  Brain concentration A2: BLQ
  Brain concentration Mean: BLQ

## CCC(NC(=O)[C@H](CC(C)C)NC(=O)NCc1ccccc1)C(=O)C(=O)NCc1cccc(Cl)c1OC (stereo partly drawn) [NA184, (2S)-2-(3-benzylureido)-N-(1-((3-chloro-2-methoxybenzyl)amino)-1,2-dioxopentan-3-yl)-4-methylpentanamide]
Cell death in cortex
  Cell death in cortex, male and female rats: significantly prevented cell death
calpain-1 [3]
  Calpain-1 inhibition in brain, male and female mice: not calpain-1
calpain-1 [4]
  Calpain-1 inhibition in brain, male and female rats: not calpain-1
